Key:
Assay in all cases: Kinase profiling, Invitrogen Z'-LYTE
Format in all cases: biochemical
Details in all cases: Table 2
SRPK2 = target: T1, SRPK2 (Homo sapiens, UniProt P78362)
T1 construct: purchased Invitrogen
Protocol: (§1) Kinase profiling was conducted using Invitrogen Z'-LYTE screening protocol and assay conditions found at www.invitrogen.com. Compound (2) inhibited PLK1 completely at 5 μM.

CDK5/p25 = target: T2, CDK5/p25 (Homo sapiens, UniProt Q00535)
T2 construct: purchased Invitrogen
T2 sequence (Q00535 whole entry): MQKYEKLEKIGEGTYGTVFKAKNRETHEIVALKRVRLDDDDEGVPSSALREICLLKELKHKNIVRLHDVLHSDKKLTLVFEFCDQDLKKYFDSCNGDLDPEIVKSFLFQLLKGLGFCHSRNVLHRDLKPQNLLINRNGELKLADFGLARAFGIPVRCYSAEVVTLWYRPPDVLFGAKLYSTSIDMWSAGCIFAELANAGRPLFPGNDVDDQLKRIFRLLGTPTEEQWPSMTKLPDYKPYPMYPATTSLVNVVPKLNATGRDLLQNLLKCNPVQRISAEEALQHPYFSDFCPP
T2 sequence (Q15078 99-307 partner limits assumed): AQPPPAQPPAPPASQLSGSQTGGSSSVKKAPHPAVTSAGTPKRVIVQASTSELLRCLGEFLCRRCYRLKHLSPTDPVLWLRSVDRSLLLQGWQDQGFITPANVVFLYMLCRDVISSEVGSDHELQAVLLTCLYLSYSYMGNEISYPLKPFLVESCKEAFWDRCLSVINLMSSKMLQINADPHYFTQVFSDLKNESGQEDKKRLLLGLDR
Protocol: as §1

PRKD1 (PKC mu) = target: T3, PRKD1 (PKC mu) (Homo sapiens, UniProt Q15139)
T3 construct: purchased Invitrogen
T3 sequence (Q15139 1-912): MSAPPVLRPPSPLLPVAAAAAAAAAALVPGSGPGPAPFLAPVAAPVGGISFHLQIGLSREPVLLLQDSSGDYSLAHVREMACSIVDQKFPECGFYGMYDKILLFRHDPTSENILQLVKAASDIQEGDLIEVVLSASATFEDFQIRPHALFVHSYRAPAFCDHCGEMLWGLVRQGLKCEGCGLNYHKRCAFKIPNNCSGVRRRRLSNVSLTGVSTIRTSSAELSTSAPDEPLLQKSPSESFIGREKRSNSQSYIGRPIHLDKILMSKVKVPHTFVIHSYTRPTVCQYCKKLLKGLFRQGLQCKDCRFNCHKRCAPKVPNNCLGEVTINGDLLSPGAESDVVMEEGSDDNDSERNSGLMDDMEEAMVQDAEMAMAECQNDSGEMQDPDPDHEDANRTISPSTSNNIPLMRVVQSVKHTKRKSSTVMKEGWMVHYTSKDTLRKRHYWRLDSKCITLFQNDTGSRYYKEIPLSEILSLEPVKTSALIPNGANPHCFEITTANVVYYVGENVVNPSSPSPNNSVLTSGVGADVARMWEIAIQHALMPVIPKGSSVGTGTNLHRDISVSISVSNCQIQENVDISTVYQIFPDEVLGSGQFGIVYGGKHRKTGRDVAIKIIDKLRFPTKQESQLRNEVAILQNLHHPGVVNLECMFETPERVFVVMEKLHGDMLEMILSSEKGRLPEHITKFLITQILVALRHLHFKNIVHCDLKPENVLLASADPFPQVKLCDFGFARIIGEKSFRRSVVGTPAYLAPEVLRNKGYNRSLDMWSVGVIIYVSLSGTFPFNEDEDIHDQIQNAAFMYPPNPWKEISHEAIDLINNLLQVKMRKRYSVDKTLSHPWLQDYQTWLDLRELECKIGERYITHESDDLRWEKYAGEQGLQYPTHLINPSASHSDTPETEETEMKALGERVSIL
Protocol: as §1

NEK6 = target: T4, NEK6 (Homo sapiens, UniProt Q9HC98)
T4 construct: purchased Invitrogen
T4 sequence (Q9HC98 whole entry): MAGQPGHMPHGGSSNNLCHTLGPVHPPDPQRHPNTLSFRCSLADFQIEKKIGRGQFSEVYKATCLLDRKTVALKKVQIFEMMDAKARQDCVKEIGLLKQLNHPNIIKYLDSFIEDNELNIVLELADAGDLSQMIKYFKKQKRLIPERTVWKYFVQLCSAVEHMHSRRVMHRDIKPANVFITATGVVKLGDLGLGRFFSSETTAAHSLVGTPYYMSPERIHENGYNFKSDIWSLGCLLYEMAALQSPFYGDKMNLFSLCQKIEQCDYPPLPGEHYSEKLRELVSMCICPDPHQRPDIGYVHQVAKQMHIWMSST
Protocol: as §1

IKBKE (IKK epsilon) = target: T5, IKBKE (IKK epsilon) (Homo sapiens, UniProt Q14164)
T5 construct: purchased Invitrogen
T5 sequence (Q14164 1-716): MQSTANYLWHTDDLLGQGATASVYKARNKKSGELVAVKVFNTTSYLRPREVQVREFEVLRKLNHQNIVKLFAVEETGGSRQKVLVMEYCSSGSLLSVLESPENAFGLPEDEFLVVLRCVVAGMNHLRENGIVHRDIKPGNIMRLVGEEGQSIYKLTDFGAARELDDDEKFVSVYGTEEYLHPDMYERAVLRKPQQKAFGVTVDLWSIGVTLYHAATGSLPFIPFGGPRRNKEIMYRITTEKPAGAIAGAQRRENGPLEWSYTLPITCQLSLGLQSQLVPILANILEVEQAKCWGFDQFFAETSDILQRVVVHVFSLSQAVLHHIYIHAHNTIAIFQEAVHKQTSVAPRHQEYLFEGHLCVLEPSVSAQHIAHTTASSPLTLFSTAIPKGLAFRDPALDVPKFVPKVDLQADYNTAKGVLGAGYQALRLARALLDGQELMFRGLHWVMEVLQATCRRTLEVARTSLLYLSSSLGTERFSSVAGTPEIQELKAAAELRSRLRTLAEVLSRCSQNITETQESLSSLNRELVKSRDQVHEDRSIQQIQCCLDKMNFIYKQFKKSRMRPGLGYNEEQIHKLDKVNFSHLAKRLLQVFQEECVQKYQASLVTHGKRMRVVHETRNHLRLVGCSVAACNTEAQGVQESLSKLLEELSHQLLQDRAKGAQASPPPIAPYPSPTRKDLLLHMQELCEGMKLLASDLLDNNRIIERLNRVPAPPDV
Protocol: as §1

EEF2K = target: T6, EEF2K (Homo sapiens, UniProt O00418)
T6 construct: purchased Invitrogen
Protocol: as §1

SGKL (SGK3) = target: T7, SGKL (SGK3) (Homo sapiens, UniProt Q96BR1)
T7 construct: purchased Invitrogen
T7 sequence (Q96BR1 1-496): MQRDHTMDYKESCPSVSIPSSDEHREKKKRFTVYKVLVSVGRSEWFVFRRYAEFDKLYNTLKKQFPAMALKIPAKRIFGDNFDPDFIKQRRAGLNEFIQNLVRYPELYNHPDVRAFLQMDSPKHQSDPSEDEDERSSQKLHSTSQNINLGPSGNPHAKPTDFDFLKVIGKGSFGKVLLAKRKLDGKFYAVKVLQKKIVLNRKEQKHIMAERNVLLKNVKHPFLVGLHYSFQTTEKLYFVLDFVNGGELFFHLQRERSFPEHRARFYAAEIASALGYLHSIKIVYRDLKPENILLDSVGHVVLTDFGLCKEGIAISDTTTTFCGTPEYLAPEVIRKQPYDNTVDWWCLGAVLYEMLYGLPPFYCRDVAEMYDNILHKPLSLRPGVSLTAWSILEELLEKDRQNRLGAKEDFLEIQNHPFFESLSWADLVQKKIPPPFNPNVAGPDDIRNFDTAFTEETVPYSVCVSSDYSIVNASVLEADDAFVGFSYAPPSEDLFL
Protocol: as §1

FER = target: T8, FER (Homo sapiens, UniProt P16591)
T8 construct: purchased Invitrogen
T8 sequence (P16591 whole entry): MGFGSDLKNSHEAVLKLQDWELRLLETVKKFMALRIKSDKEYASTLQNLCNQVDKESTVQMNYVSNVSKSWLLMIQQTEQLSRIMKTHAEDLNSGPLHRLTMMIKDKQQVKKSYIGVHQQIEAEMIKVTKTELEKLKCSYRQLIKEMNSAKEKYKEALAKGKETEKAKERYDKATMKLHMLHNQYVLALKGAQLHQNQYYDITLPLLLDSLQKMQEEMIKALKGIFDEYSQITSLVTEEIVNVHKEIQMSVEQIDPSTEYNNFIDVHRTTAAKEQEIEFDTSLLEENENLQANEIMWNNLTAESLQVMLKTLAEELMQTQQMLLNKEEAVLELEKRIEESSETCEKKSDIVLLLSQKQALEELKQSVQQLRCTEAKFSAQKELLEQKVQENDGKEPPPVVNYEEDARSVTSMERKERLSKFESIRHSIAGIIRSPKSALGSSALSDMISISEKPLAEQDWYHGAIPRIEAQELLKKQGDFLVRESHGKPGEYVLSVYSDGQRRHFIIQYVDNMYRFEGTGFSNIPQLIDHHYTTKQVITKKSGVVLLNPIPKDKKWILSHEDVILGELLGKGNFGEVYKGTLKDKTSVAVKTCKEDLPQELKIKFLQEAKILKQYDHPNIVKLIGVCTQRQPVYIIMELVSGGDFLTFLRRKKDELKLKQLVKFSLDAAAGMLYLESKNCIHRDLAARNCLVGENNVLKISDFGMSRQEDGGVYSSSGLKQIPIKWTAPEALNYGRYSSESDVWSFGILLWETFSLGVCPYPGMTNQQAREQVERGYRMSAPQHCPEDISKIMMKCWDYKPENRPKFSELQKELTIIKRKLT
Protocol: as §1

HIPK2 = target: T9, HIPK2 (Homo sapiens, UniProt Q9H2X6)
T9 construct: purchased Invitrogen
T9 sequence (Q9H2X6 whole entry): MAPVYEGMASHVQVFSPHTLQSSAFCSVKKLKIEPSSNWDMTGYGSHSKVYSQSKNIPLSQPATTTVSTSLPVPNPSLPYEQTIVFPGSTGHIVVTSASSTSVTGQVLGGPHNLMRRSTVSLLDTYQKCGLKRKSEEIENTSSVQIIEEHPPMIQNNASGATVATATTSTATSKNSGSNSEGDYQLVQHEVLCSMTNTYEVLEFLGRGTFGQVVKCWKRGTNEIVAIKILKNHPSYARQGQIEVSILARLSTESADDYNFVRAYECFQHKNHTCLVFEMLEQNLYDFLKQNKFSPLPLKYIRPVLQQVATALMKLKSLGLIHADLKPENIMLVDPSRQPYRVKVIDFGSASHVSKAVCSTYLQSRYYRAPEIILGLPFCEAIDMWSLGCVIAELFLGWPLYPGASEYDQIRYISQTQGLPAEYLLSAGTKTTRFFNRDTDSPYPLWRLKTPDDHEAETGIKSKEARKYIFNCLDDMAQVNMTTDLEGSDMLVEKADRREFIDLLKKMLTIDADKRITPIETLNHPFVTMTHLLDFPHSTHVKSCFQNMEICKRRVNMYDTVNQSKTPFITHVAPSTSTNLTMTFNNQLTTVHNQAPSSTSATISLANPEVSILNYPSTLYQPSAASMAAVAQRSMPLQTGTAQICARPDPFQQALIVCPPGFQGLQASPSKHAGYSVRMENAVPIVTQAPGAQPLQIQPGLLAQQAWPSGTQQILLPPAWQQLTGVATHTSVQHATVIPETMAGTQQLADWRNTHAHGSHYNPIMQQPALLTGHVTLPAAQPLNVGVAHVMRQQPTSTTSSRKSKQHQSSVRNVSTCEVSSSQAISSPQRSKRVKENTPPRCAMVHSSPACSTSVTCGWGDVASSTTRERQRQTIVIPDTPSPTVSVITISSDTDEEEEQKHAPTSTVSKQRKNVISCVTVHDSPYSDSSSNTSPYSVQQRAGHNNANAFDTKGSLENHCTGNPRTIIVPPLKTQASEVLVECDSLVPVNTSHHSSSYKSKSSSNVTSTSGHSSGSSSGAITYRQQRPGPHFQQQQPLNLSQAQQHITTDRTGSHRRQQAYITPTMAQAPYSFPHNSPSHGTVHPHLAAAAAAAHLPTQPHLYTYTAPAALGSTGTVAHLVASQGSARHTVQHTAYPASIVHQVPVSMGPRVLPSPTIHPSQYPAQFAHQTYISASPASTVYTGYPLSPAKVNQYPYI
Protocol: as §1

RET = target: T10, RET (Homo sapiens, UniProt P07949)
T10 construct: purchased Invitrogen
T10 sequence (P07949 29-1114): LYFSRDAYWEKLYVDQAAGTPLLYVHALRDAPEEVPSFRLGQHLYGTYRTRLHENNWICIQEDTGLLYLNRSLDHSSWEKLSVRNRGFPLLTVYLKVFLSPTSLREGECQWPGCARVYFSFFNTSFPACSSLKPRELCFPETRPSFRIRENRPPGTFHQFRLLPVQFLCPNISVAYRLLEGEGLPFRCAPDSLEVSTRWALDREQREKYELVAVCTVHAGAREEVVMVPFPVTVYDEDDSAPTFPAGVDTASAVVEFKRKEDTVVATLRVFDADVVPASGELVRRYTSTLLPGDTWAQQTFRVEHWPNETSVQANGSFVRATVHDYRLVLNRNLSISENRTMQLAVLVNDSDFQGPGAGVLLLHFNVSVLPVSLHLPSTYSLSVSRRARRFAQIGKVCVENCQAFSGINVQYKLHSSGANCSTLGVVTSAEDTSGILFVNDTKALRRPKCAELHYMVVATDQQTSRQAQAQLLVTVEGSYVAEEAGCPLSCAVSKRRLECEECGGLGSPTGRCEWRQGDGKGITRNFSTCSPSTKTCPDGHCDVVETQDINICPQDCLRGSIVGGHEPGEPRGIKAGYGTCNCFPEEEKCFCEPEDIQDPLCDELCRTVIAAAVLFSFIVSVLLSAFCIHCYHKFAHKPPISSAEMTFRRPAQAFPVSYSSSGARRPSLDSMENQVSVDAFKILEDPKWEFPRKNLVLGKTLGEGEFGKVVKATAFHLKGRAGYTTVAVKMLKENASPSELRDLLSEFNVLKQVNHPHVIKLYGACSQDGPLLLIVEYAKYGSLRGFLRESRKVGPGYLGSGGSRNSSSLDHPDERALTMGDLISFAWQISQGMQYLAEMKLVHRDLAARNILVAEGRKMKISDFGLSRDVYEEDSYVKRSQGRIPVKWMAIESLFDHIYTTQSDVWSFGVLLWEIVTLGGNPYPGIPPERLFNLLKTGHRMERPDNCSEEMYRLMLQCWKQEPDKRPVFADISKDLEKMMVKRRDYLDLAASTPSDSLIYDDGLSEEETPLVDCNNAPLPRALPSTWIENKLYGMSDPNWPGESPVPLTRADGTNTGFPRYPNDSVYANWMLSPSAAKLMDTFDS
Protocol: as §1

T1 sequence (P78362 whole entry): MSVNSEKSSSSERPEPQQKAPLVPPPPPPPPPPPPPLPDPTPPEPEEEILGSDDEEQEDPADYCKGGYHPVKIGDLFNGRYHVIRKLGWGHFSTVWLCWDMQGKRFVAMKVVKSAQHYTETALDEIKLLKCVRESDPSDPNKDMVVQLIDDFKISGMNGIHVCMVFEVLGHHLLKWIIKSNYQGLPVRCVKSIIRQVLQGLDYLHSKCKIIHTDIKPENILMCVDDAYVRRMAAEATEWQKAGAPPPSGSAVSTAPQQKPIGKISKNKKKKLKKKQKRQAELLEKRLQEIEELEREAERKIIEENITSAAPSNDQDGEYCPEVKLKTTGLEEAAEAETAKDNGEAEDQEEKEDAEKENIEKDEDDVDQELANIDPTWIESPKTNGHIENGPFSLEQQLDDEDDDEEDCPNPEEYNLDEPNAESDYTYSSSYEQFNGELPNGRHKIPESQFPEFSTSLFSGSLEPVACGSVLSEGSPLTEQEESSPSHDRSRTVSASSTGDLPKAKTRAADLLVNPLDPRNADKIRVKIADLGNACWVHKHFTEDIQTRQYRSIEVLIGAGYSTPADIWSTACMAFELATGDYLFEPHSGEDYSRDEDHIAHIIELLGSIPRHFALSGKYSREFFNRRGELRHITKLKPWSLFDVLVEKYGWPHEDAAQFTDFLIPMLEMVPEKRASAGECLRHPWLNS

COc1ccc(OC(=O)n2c(=O)oc3cc(C(C)=O)ccc32)cc1 [Compound 2]
% Inhibition Point 1 (SRPK2): −155%
% Inhibition Point 2 (SRPK2): −160%
% Inhibition mean (SRPK2): −158%
% Inhibition Point 1 (CDK5/p25): −322%
% Inhibition Point 2 (CDK5/p25): −286%
% Inhibition mean (CDK5/p25): −304%
% Inhibition Point 1 (PRKD1 (PKC mu)): −137%
% Inhibition Point 2 (PRKD1 (PKC mu)): −151%
% Inhibition mean (PRKD1 (PKC mu)): −144%
% Inhibition Point 1 (NEK6): −490%
% Inhibition Point 2 (NEK6): −457%
% Inhibition mean (NEK6): −474%
% Inhibition Point 1 (IKBKE (IKK epsilon)): 3%
% Inhibition Point 2 (IKBKE (IKK epsilon)): 4%
% Inhibition mean (IKBKE (IKK epsilon)): 3%
% Inhibition Point 1 (EEF2K): −64%
% Inhibition Point 2 (EEF2K): −61%
% Inhibition mean (EEF2K): −63%
% Inhibition Point 1 (SGKL (SGK3)): −140%
% Inhibition Point 2 (SGKL (SGK3)): −150%
% Inhibition mean (SGKL (SGK3)): −145%
% Inhibition Point 1 (FER): −261%
% Inhibition Point 2 (FER): −240%
% Inhibition mean (FER): −251%
% Inhibition Point 1 (HIPK2): −96%
% Inhibition Point 2 (HIPK2): −90%
% Inhibition mean (HIPK2): −93%
% Inhibition Point 1 (RET): −91%
% Inhibition Point 2 (RET): −70%
% Inhibition mean (RET): −80%
